Here are results for 48 compounds from patent publication US7276502B2, “Thiazoles useful as inhibitors of protein kinases” (Vertex Pharmaceuticals Incorporated, priority 2003, dated 2007).

A word on the Ki: it is the dissociation constant of the complex between target and ligand, obtained from inhibition or displacement.

Read-outs that look alike come from different tables or passages of the source. Bounds are passed on as bounds.

The target of one test is SYK (Homo sapiens, UniProt P43405). Description: SYK inhibition assay (standard coupled enzyme assay). Type of test: biochemical. On the procedure:
Reactions were carried out in 100 mM HEPES (pH 7.5), 10 mM MgCl2, 25 mM NaCl, 1 mM DTT and 1.5% DMSO. Final substrate concentrations in the assay were 200 μM ATP (Sigma chemical Co.) and 4 μM poly Gly-Tyr peptide (Sigma Chemical Co.). Assays were carried out at 30° C. and 200 nM SYK. Final concentrations of the components of the coupled enzyme system were 2.5 mM phosphoenolpyruvate, 300 μM NADH, 30 μg/ml pyruvate kinase and 10 μg/ml lactate dehydrogenase.
An assay stock buffer solution was prepared containing all of the reagents listed above, with the exception of SYK, DTT, and the test compound of interest of the present invention. 56 μl of the test reaction was placed in a 96 well plate followed by the addition of 1 μl of 2 mM DMSO stock containing the test compound of the present invnetion (final compound concentration 30 μM).

The next test has as its target T1, ZAP-70 (Homo sapiens, UniProt P43403).
T1 sequence (P43403 1-619): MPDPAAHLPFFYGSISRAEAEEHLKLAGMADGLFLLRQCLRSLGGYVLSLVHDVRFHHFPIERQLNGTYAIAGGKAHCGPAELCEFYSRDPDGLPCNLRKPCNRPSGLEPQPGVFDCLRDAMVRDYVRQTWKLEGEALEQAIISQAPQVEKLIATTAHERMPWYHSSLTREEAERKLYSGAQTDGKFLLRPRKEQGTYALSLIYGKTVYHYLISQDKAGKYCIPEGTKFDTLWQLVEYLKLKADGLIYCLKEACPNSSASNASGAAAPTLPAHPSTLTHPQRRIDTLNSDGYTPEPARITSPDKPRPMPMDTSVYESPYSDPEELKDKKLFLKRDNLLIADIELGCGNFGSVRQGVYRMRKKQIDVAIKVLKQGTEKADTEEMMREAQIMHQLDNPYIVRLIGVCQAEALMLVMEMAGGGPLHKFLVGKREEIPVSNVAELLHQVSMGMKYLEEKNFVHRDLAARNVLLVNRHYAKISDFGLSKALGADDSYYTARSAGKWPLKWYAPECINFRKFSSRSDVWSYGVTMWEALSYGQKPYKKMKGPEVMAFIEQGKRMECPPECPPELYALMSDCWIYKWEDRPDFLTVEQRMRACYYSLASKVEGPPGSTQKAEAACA
The experiment in a line: ZAP-70 inhibition assay (standard coupled enzyme assay). The following applies: 100 μM ATP, 20 μM poly-4EY peptide, 30° C., 60 nM ZAP-70. In kind it is biochemical. On the procedure: Compounds were screened for their ability to inhibit ZAP-70 using a standard coupled enzyme assay (Fox et al., Protein Sci. 1998, 7, 2249). Assays were carried out in a mixture of 100 mM HEPES (pH 7.5), 10 mM MgCl2, 25 mM NaCl, 2 mM DTT and 3% DMSO. Final substrate concentrations in the assay were 100 μM ATP (Sigma Chemicals) and 20 μM peptide (poly-4EY, Sigma Chemicals). Assays were carried out at 30° C. and 60 nM ZAP-70. Final concentrations of the components of the coupled enzyme system were 2.5 mM phosphoenolpyruvate, 300 μM NADH, 30 μg/ml pyruvate kinase and 10 μg/ml lactate dehydrogenase.
An assay stock buffer solution was prepared containing all of the reagents listed above, with the exception of ZAP-70 and the test compound of interest of the present invention. 55 μl of the stock solution was placed in a 96 well plate followed by addition of 2 μl of DMSO stock containing serial dilutions of the test compound of the present invention (typically starting from a final concentration of 15 μM). The plate was preincubated for 10 minutes at 30° C. and the reaction initiated by addition of 10 μl of enzyme (final concentration 60 nM). Initial reaction rates were determined with a Molecular Devices SpectraMax Plus plate reader over a 15 minute time course. Ki data was calculated from non-linear regression analysis using the Prism software package (GraphPad Prism version 3.0a for Macintosh, GraphPad Software, San Diego Calif., USA).

Where [1] appears, read: coupled enzyme assay, 200 μM ATP, 4 μM poly Gly-Tyr peptide, 30° C., read-out: Ki (SYK).

For `Cc1cnc(-c2ccnc(Nc3ccc(NC(=O)CCNC(=O)OC(C)(C)C)cc3)n2)s1` [Example I-153], the inhibition constant Ki on SYK (setting [1]) and at ZAP-70 was not above 5 µM each time.

Take `COc1ccc(Nc2nccc(-c3ncc(C)s3)n2)cc1O` [Example I-17]: the inhibition constant (Ki) at SYK (setting [1]) and on ZAP-70 was not above 5 µM in each case.

Turning to `Cc1cnc(-c2ccnc(Nc3cc(Cl)cc(Cl)c3)n2)s1` [Example I-51], the Ki at SYK (setting [1]) and at ZAP-70 was not above 5 µM in each case.

Regarding `COc1cc(Nc2nccc(-c3ncc(C)s3)n2)cc(OC)c1OC` [Example I-122], the Ki on SYK (setting [1]) and on ZAP-70 was not above 5 µM in each case.

For `Cc1cnc(-c2ccnc(Nc3cc(N)cc(C(F)(F)F)c3)n2)s1` [Example I-89], the Ki at SYK (setting [1]) and at ZAP-70 was not above 5 µM throughout.

As to `CC(=O)Nc1cc(C)cc(Nc2nccc(-c3ncc(C)s3)n2)c1` [Example I-154], the inhibitory constant (Ki) at SYK (setting [1]) and on ZAP-70 was not above 5 µM throughout.

Consider `COC(=O)c1ccc(Nc2nccc(-c3ncc(C)s3)n2)cc1C` [Example I-106], for which the inhibitory constant (Ki) on SYK (setting [1]) and on ZAP-70 was not above 5 µM throughout.

On to `Cc1cc(C)cc(Nc2nccc(-c3ncc(C(=O)N4CCNCC4)s3)n2)c1` [Example I-134], for which the inhibition constant (Ki) at SYK (setting [1]) and at ZAP-70 was not above 5 µM each time.

Consider `Cc1cc(C)cc(Nc2nccc(-c3ncc(N(C)C)s3)n2)c1` [Example I-94], for which the inhibition constant (Ki) at SYK (setting [1]) and at ZAP-70 was not above 5 µM in each case.

On to `Cc1cnc(-c2ccnc(Nc3ccc(Nc4ccccc4)cc3)n2)s1` [Example I-12], for which the Ki at SYK (setting [1]) and on ZAP-70 was not above 5 µM each time.

As for `Cc1cnc(-c2ccnc(Nc3ccc4c(c3)OCCCO4)n2)s1` [Example I-4], the inhibition constant Ki at SYK (setting [1]) and at ZAP-70 was not above 5 µM throughout.

Consider `Cc1cnc(-c2ccnc(Nc3ccc([N+](=O)[O-])cc3)n2)s1` [Example I-79], for which the Ki on SYK (setting [1]) and at ZAP-70 was not above 5 µM each time.

On to `Cc1cnc(-c2ccnc(Nc3ccc(N)cc3)n2)s1` [Example I-140], for which the Ki on SYK (setting [1]) and on ZAP-70 was not above 5 µM throughout.

For `Cc1cc(C)cc(Nc2nccc(-c3nc(C)c(CCOC4CCCCO4)s3)n2)c1` (stereo not drawn) [Example I-119], the Ki at SYK (setting [1]) and at ZAP-70 was not above 5 µM throughout.

For the compound `Cc1cc(C)cc(Nc2nccc(-c3ncc(CNCCCO)s3)n2)c1` [Example I-88], the inhibition constant Ki on SYK (setting [1]) and at ZAP-70 was not above 5 µM in each case.

Take `CCCc1cnc(-c2ccnc(Nc3cc(C)cc(C)c3)n2)s1` [Example I-85]: the inhibitory constant (Ki) on SYK (setting [1]) and on ZAP-70 was not above 5 µM throughout.

With `OCc1csc(-c2ccnc(Nc3cc(O)cc(C(F)(F)F)c3)n2)n1` [Example I-146], the inhibition constant Ki on SYK and at ZAP-70 was not above 5 µM throughout.

Regarding `Cc1cc(C)cc(Nc2nccc(-c3nc(Br)cs3)n2)c1` [Example I-42], the Ki at SYK (setting [1]) and at ZAP-70 was not above 5 µM throughout.

On to `Cc1cnc(-c2ccnc(Nc3cc(O)cc(C(F)(F)F)c3)n2)s1` [Example I-109], for which the Ki on SYK (setting [1]) and on ZAP-70 was not above 5 µM each time.

With `Cc1cc(C)cc(Nc2nccc(-c3ncc(NCCN)s3)n2)c1` [Example I-142], the inhibition constant (Ki) on SYK (setting [1]) and at ZAP-70 was not above 5 µM each time.

Turning to `Cc1cnc(-c2ccnc(Nc3ccc(-n4cncn4)cc3)n2)s1` [Example I-23], the Ki at SYK (setting [1]) and at ZAP-70 was not above 5 µM in each case.

With `OCc1cnc(-c2ccnc(Nc3cc(O)cc(C(F)(F)F)c3)n2)s1` [Example I-144], the Ki at SYK (setting [1]) and on ZAP-70 was not above 5 µM throughout.

`Cc1cnc(-c2ccnc(Nc3ccc4ncsc4c3)n2)s1` [Example I-135]: the Ki at SYK (setting [1]) and at ZAP-70 was not above 5 µM in each case.

Consider `COc1cc(Nc2nccc(-c3ncc(C)s3)n2)ccc1-c1ccccc1` [Example I-19], for which the Ki at SYK (setting [1]) and on ZAP-70 was not above 5 µM in each case.

With `Cc1cnc(-c2ccnc(Nc3cccc(C#N)c3)n2)s1` [Example I-90], the Ki at SYK (setting [1]) and at ZAP-70 was not above 5 µM throughout.

In the case of `COc1ccc(Nc2nccc(-c3ncc(C)s3)n2)cc1OC` [Example I-2], the inhibition constant Ki at SYK (setting [1]) and at ZAP-70 was not above 5 µM throughout.

Take `CC(=O)Nc1cccc(Nc2nccc(-c3ncc(C)s3)n2)c1` [Example I-78]: the inhibition constant Ki at SYK (setting [1]) and at ZAP-70 was not above 5 µM throughout.

Consider `Cc1cc(Nc2nccc(-c3ncc(C)s3)n2)[nH]n1` [Example I-151], for which the Ki on SYK (setting [1]) was not above 5 µM.

For the compound `Cc1cnc(-c2ccnc(Nc3ccc(O)c(C)c3)n2)s1` [Example I-102], the Ki at SYK (setting [1]) and at ZAP-70 was not above 5 µM in each case.

Turning to `COc1cc(Nc2nccc(-c3ncc(CO)s3)n2)cc(C(F)(F)F)c1` [Example I-83], the Ki on SYK (setting [1]) and on ZAP-70 was not above 5 µM throughout.

As for `Cc1cc(C)cc(Nc2nccc(-c3ncc(C(=O)O)s3)n2)c1` [Example I-118], the Ki at SYK (setting [1]) and on ZAP-70 was not above 5 µM each time.

With `Cc1cnc(-c2ccnc(Nc3cccc(OCc4ccccc4)c3)n2)s1` [Example I-37], the inhibitory constant (Ki) at SYK (setting [1]) and at ZAP-70 was not above 5 µM throughout.

`OCc1csc(-c2ccnc(Nc3cccc(OCc4ccccc4)c3)n2)n1` [Example I-73]: the Ki at SYK (setting [1]) and at ZAP-70 was not above 5 µM each time.

In the case of `CC(=O)Nc1ccc(Nc2nccc(-c3ncc(C)s3)n2)cc1C` [Example I-35], the Ki on SYK (setting [1]) and at ZAP-70 was not above 5 µM each time.

Regarding `Cc1cnc(-c2ccnc(Nc3cccc(N)c3)n2)s1` [Example I-32], the inhibition constant Ki on SYK (setting [1]) and at ZAP-70 was not above 5 µM in each case.

For the compound `Cc1cnc(-c2ccnc(Nc3ccccc3)n2)s1` [Example I-49], the Ki at SYK (setting [1]) and on ZAP-70 was not above 5 µM throughout.

For `CC(=O)c1ccc(Nc2nccc(-c3ncc(C)s3)n2)cc1` [Example I-116], the Ki at SYK (setting [1]) and on ZAP-70 was not above 5 µM each time.

Take `Cc1cnc(-c2ccnc(Nc3ccc4c(c3)CC(=O)N4)n2)s1` [Example I-36]: the inhibitory constant (Ki) at SYK (setting [1]) and on ZAP-70 was not above 5 µM in each case.

In the case of `Cc1cc(C)cc(Nc2nccc(-c3nc(CNCC(=O)OC(C)(C)C)cs3)n2)c1` [Example I-67], the Ki on SYK (setting [1]) is not above 5 µM.

Regarding `Cc1cnc(-c2ccnc(Nc3ccc(F)cc3F)n2)s1` [Example I-97], the Ki on SYK (setting [1]) and on ZAP-70 was not above 5 µM in each case.

`Cc1cnc(-c2ccnc(Nc3cccc(S(=O)(=O)c4cccc(N)c4)c3)n2)s1` [Example I-6]: the inhibition constant Ki on SYK (setting [1]) and on ZAP-70 was not above 5 µM each time.

For the compound `COc1cccc(Nc2nccc(-c3ncc(C)s3)n2)c1` [Example I-27], the inhibitory constant (Ki) at SYK (setting [1]) and on ZAP-70 was not above 5 µM throughout.

As to `COc1cc(Nc2nccc(-c3ncc(N4CCNCC4)s3)n2)cc(OC)c1OC` [Example I-145], the Ki at SYK (setting [1]) and at ZAP-70 was not above 5 µM throughout.

For `Cc1cc(C)cc(Nc2nccc(-c3ncc(C(=O)Nc4ccccc4)s3)n2)c1` [Example I-137], the inhibitory constant (Ki) on SYK (setting [1]) and at ZAP-70 was not above 5 µM throughout.

With `Cc1cnc(-c2ccnc(Nc3ccc4c(c3)C(=O)OC4)n2)s1` [Example I-126], the inhibition constant Ki at SYK (setting [1]) was not above 5 µM.

For the compound `CC(=O)Nc1ccc(Nc2nccc(-c3ncc(C)s3)n2)cc1` [Example I-157], the Ki on SYK (setting [1]) was not above 5 µM.

At SYK, `CCOP(=O)(Cc1ccc(Nc2nccc(-c3ncc(C)s3)n2)cc1)OCC` [Example I-33] returned a Ki not above 5 µM.

For `Cc1cc(C)cc(Nc2nccc(-c3nc(CN4CCC(O)C4)cs3)n2)c1` (stereo not drawn) [Example I-58], the Ki at SYK (setting [1]) was not above 5 µM.
